Laboratory results: US12398120B2, “Substituted hydantoinamides as ADAMTS7 antagonists” (BAYER AKTIENGESELLSCHAFT, priority 2019, dated 2025)

Target: ADAMTS4 (Homo sapiens (Human), UniProt O75173)
Experiment: Selectivity assay for ADAMTS-7 modulators: ADAMTS4 (FRET substrate)
Assay type: biochemical
Conditions: ADAMTS4 (R&D 4307-AD) 50 nM, 120 min, 32° C.
Outline: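 Human ADAMTS4 with compound in DMSO, or DMSO control; reaction started by adding FRET substrate in reaction buffer. Fluorescence increase measured at substrate-specific wavelengths. IC50 derived from % inhibition of enzyme activity versus compound concentration.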

[1] = substrate Dabcyl-EEVKAKVQPY-Glu(Edans)-NH2 1 μM
[2] = substrate Dabcyl-[…]-Glu(Edans)-NH2 1 μM

Sequence of ADAMTS4 (O75173 213-685): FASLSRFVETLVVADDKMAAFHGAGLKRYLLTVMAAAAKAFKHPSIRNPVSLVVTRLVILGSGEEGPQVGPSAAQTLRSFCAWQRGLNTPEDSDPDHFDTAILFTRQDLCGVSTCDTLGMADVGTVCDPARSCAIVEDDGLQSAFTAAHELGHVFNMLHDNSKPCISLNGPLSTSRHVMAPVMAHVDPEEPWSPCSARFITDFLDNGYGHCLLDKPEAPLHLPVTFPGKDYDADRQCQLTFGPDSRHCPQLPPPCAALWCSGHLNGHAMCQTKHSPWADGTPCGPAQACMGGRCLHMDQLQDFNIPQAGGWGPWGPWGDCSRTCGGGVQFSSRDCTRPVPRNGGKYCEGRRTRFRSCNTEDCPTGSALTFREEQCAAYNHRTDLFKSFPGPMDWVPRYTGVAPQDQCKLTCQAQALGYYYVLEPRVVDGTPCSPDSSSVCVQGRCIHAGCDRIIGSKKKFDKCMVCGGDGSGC

| IC50 [1] | SMILES | IC50 [2] |
| --- | --- | --- |
| 3.55 µM | Cn1nccc1C1(CNC(=O)c2cc(F)ccc2-c2ccc(Cl)cc2)NC(=O)NC1=O (single isomer, unassigned; ent-4) [Example 187, Ent-4′-Chloro-4-Fluoro-N-{[4-(1-Methyl-1H-Pyrazol-5-Yl)-2,5-Dioxoimidazolidin-4-Yl]Methyl}[Biphenyl]-2-Carboxamide] | – |
| 7.13 µM | Cn1nccc1C1(CNC(=O)c2cc(F)c(F)cc2-c2ccc(C(F)(F)F)cc2)NC(=O)NC1=O (single isomer, unassigned; ent-4) [Example 192, Ent-4,5-Difluoro-N-{[4-(1-Methyl-1H-Pyrazol-5-Yl)-2,5-Dioxoimidazolidin-4-Yl]Methyl}-4′-(Trifluoromethyl)[Biphenyl]-2-Carboxamide] | – |
| 1.57 µM | Cn1nccc1C1(CNC(=O)c2ccc(Cl)cc2-c2ccc(Cl)cc2)NC(=O)NC1=O (single isomer, unassigned; ent-4) [Example 193, Ent-4′,5-Dichloro-N-{[4-(1-Methyl-1H-Pyrazol-5-Yl)-2,5-Dioxoimidazolidin-4-Yl]Methyl}[Biphenyl]-2-Carboxamide] | – |
| 13 µM | CC(C)C1(CNC(=O)c2cc(F)ccc2-c2ccc(C(F)(F)F)cc2)NC(=O)NC1=O (single isomer, unassigned; ent-4) [Example 212, Ent-4-Fluoro-N-[(4-Isopropyl-2,5-Dioxoimidazolidin-4-Yl)Methyl]-4′-(Trifluoromethyl)[Biphenyl]-2-Carboxamide] | – |
| 30 µM | CC(C)C1(CNC(=O)c2cc(F)c(F)cc2-c2ccc(C(F)(F)F)cc2)NC(=O)NC1=O (single isomer, unassigned; ent-4) [Example 213, Ent-4,5-Difluoro-N-[(4-Isopropyl-2,5-Dioxoimidazolidin-4-Yl)Methyl]-4′-(Trifluoromethyl)[Biphenyl]-2-Carboxamide] | – |
| > 50 µM | O=C1NC(=O)C(CNC(=O)c2ccccc2-c2ccc(Cl)cc2)(C2CC(F)(F)C2)N1 (single isomer, unassigned; ent-4) [Example 247, Ent-4′-Chloro-N-{[4-(3,3-Difluorocyclobutyl)-2,5-Dioxoimidazolidin-4-Yl]Methyl}[Biphenyl]-2-Carboxamide] | – |
| 11 µM | O=C1NC(=O)C(CNC(=O)c2ccccc2-c2ccc(Cl)cc2)(C2(F)CC2)N1 (single isomer, unassigned; ent-4) [Example 251, Ent-4′-Chloro-N-{[4-(1-Fluorocyclopropyl)-2,5-Dioxoimidazolidin-4-Yl]Methyl}[Biphenyl]-2-Carboxamide] | – |
| 5.8 µM | O=C1NC(=O)C(CNC(=O)c2ccccc2-c2ccc(Cl)cc2)(c2ccnn2C(F)F)N1 (single isomer, unassigned; ent-4) [Example 259, Ent-4′-Chloro-N-({4-[1-(Difluoromethyl)-1H-Pyrazol-5-Yl]-2,5-Dioxoimidazolidin-4-Yl}Methyl)[Biphenyl]-2-Carboxamide] | – |
| 6.3 µM | Cn1nccc1C1(CNC(=O)c2ccc(Cl)cc2-c2ccc(C(F)(F)F)nc2)NC(=O)NC1=O (single isomer, unassigned; ent-4) [Example 289, Ent-4-Chloro-N-{[4-(1-Methyl-1H-Pyrazol-5-Yl)-2,5-Dioxoimidazolidin-4-Yl]Methyl}-2-[6-(Trifluoromethyl)Pyridin-3-Yl]Benzamide] | – |
| 14 µM | Cn1nccc1C1(CNC(=O)c2ccc(F)cc2-c2ccc(C(F)(F)F)nc2)NC(=O)NC1=O (single isomer, unassigned; ent-4) [Example 291, Ent-4-Fluoro-N-{[4-(1-Methyl-1H-Pyrazol-5-Yl)-2,5-Dioxoimidazolidin-4-Yl]Methyl}-2-[6-(Trifluoromethyl)Pyridin-3-Yl]Benzamide] | – |
| – | O=C1NC(=O)C(CNC(=O)c2ccc(F)cc2-c2ccc(Cl)cc2)(C2(F)CC2)N1 (single isomer, unassigned; ent-4) [Example 301, Ent-4′-Chloro-5-Fluoro-N-{[4-(1-Fluorocyclopropyl)-2,5-Dioxoimidazolidin-4-Yl]Methyl}[Biphenyl]-2-Carboxamide] | 15 µM |
| 20 µM | Cn1nccc1C1(CNC(=O)c2c(F)cccc2-c2ccc(Cl)cc2)NC(=O)NC1=O (single isomer, unassigned; ent-4) [Example 312, Ent-4′-Chloro-3-Fluoro-N-{[4-(1-Methyl-1H-Pyrazol-5-Yl)-2,5-Dioxoimidazolidin-4-Yl]Methyl}[Biphenyl]-2-Carboxamide] | – |
| 23 µM | Cn1nccc1C1(CNC(=O)c2ccccc2-c2ccc(Cl)cc2F)NC(=O)NC1=O (single isomer, unassigned; ent-4) [Example 313, Ent-4′-Chloro-2′-Fluoro-N-{[4-(1-Methyl-1H-Pyrazol-5-Yl)-2,5-Dioxoimidazolidin-4-Yl]Methyl}[Biphenyl]-2-Carboxamide] | – |
| > 50 µM | COc1cc(Cl)ccc1-c1ccccc1C(=O)NCC1(c2ccnn2C)NC(=O)NC1=O (single isomer, unassigned; ent-4) [Example 314, Ent-4′-Chloro-2′-Methoxy-N-{[4-(1-Methyl-1H-Pyrazol-5-Yl)-2,5-Dioxoimidazolidin-4-Yl]Methyl}[Biphenyl]-2-Carboxamide] | – |
| 3.7 µM | Cc1ncsc1C1(CNC(=O)c2ccc(Cl)cc2-c2ccc(C(F)(F)F)cc2)NC(=O)NC1=O (single isomer, unassigned; ent-5) [Example 7, Ent-5-Chloro-N-{[4-(4-Methyl-1,3-Thiazol-5-Yl)-2,5-Dioxoimidazolidin-4-Yl]Methyl}-4′-(Trifluoromethyl)[Biphenyl]-2-Carboxamide] | – |
| 3.8 µM | Cc1ccc(C(=O)NCC2(c3scnc3C)NC(=O)NC2=O)c(-c2ccc(C(F)(F)F)cc2)c1 (single isomer, unassigned; ent-5) [Example 8, Ent-5-Methyl-N-{[4-(4-Methyl-1,3-Thiazol-5-Yl)-2,5-Dioxoimidazolidin-4-Yl]Methyl}-4′-(Trifluoromethyl)[Biphenyl]-2-Carboxamide] | – |
| 8.9 µM | Cc1ncsc1C1(CNC(=O)c2ccc(F)cc2-c2ccc(C(F)(F)F)cc2)NC(=O)NC1=O (single isomer, unassigned; ent-5) [Example 10, Ent-5-Fluoro-N-{[4-(4-Methyl-1,3-Thiazol-5-Yl)-2,5-Dioxoimidazolidin-4-Yl]Methyl}-4′-(Trifluoromethyl)[Biphenyl]-2-Carboxamide] | – |
| 3.5 µM | Cc1scnc1C1(CNC(=O)c2ccc(Cl)cc2-c2ccc(C(F)(F)F)cc2)NC(=O)NC1=O (single isomer, unassigned; ent-5) [Example 16, Ent-5-Chloro-N-{[4-(5-Methyl-1,3-Thiazol-4-Yl)-2,5-Dioxoimidazolidin-4-Yl]Methyl}-4′-(Trifluoromethyl)[Biphenyl]-2-Carboxamide] | – |
| 2.1 µM | Cc1c(C2(CNC(=O)c3ccc(Cl)cc3-c3ccc(C(F)(F)F)cc3)NC(=O)NC2=O)cnn1C (single isomer, unassigned; ent-5) [Example 79, Ent-5-Chloro-N-{[4-(1,5-Dimethyl-1H-Pyrazol-4-Yl)-2,5-Dioxoimidazolidin-4-Yl]Methyl}-4′-(Trifluoromethyl)[Biphenyl]-2-Carboxamide] | – |
| 1.85 µM | Cn1ccnc1C1(CNC(=O)c2ccc(F)cc2-c2ccc(C(F)(F)F)cc2)NC(=O)NC1=O (single isomer, unassigned; ent-5) [Example 150, Ent-5-Fluoro-N-{[4-(1-Methyl-1H-Imidazol-2-Yl)-2,5-Dioxoimidazolidin-4-Yl]Methyl}-4′-(Trifluoromethyl)[Biphenyl]-2-Carboxamide] | – |
| 1.02 µM | Cc1ccc(C(=O)NCC2(c3nccn3C)NC(=O)NC2=O)c(-c2ccc(C(F)(F)F)cc2)c1 (single isomer, unassigned; ent-5) [Example 151, Ent-5-Methyl-N-{[4-(1-Methyl-1H-Imidazol-2-Yl)-2,5-Dioxoimidazolidin-4-Yl]Methyl}-4′-(Trifluoromethyl)[Biphenyl]-2-Carboxamide] | – |
| 0.51 µM | Cc1ccc(-c2cc(Cl)ccc2C(=O)NCC2(c3nccn3C)NC(=O)NC2=O)cc1 (single isomer, unassigned; ent-5) [Example 153, Ent-5-Chloro-4′-Methyl-N-{[4-(1-Methyl-1H-Imidazol-2-Yl)-2,5-Dioxoimidazolidin-4-Yl]Methyl}[Biphenyl]-2-Carboxamide] | – |
| 0.728 µM | Cn1ccnc1C1(CNC(=O)c2ccc(Cl)cc2-c2ccc(C(F)(F)F)cc2)NC(=O)NC1=O (single isomer, unassigned; ent-5) [Example 161, Ent-5-Chloro-N-{[4-(1-Methyl-1H-Imidazol-2-Yl)-2,5-Dioxoimidazolidin-4-Yl]Methyl}-4′-(Trifluoromethyl)[Biphenyl]-2-Carboxamide] | – |
| 1.9 µM | Cc1ccc(C(=O)NCC2(c3ncsc3C)NC(=O)NC2=O)c(-c2ccc(C(F)(F)F)cc2)c1 (single isomer, unassigned; ent-5) [Example 168, Ent-5-Methyl-N-{[4-(5-Methyl-1,3-Thiazol-4-Yl)-2,5-Dioxoimidazolidin-4-Yl]Methyl}-4′-(Trifluoromethyl)[Biphenyl]-2-Carboxamide] | – |
| – | Cc1scnc1C1(CNC(=O)c2ccc(F)cc2-c2ccc(C(F)(F)F)cc2)NC(=O)NC1=O (single isomer, unassigned; ent-5) [Example 176, Ent-5-Fluoro-N-{[4-(5-Methyl-1,3-Thiazol-4-Yl)-2,5-Dioxoimidazolidin-4-Yl]Methyl}-4′-(Trifluoromethyl)[Biphenyl]-2-Carboxamide] | 4.13 µM |
| 9.37 µM | Cn1nccc1C1(CNC(=O)c2ccc(F)cc2-c2ccc(C(F)(F)F)cc2)NC(=O)NC1=O (single isomer, unassigned; ent-5) [Example 184, Ent-5-Fluoro-N-{[4-(1-Methyl-1H-Pyrazol-5-Yl)-2,5-Dioxoimidazolidin-4-Yl]Methyl}-4′-(Trifluoromethyl)[Biphenyl]-2-Carboxamide] | – |
